Laboratory results as given in PubChem BioAssay (NCI).
Where “and” joins values, the source holds several entries; their conditions need not be identical. Equal values may be shown once.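 96-well plates; 48 h exposure; 5 concentrations. Endpoints by linear interpolation between flanking doses. Not reached: highest tested concentration assigned. GI50 marks 50% less growth. TGI is the concentration that stops growth completely.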

Columns and labels:
Assay in all cases: inhibition of tumour cell growth, NCI panel, 48 h
786-0 renal = system: 786-0 renal
A498 renal = system: A498 renal
A549 NSCLC = system: A549 NSCLC
ACHN renal = system: ACHN renal
BT-549 breast = system: BT-549 breast
CAKI-1 renal = system: CAKI-1 renal
CCRF-CEM leukemia = system: CCRF-CEM leukemia
COLO 205 colon = system: COLO 205 colon
DU-145 prostate = system: DU-145 prostate
EKVX NSCLC = system: EKVX NSCLC
HCC-2998 colon = system: HCC-2998 colon
HCT-116 colon = system: HCT-116 colon
HCT-15 colon = system: HCT-15 colon
HL-60(TB) leukemia = system: HL-60(TB) leukemia
HOP-62 NSCLC = system: HOP-62 NSCLC
HOP-92 NSCLC = system: HOP-92 NSCLC
HS 578T breast = system: HS 578T breast
HT29 colon = system: HT29 colon
K-562 leukemia = system: K-562 leukemia
KM12 colon = system: KM12 colon
LOX IMVI melanoma = system: LOX IMVI melanoma
M14 melanoma = system: M14 melanoma
MALME-3M melanoma = system: MALME-3M melanoma
MCF7 breast = system: MCF7 breast
MDA-MB-231 breast = system: MDA-MB-231 breast
MDA-MB-435 = system: MDA-MB-435
MOLT-4 leukemia = system: MOLT-4 leukemia
NCI-H226 lung = system: NCI-H226 lung
NCI-H23 lung = system: NCI-H23 lung
NCI-H460 lung = system: NCI-H460 lung
NCI-H522 lung = system: NCI-H522 lung
NCI/ADR-RES ovarian = system: NCI/ADR-RES ovarian
OVCAR-3 ovarian = system: OVCAR-3 ovarian
OVCAR-4 ovarian = system: OVCAR-4 ovarian
OVCAR-5 ovarian = system: OVCAR-5 ovarian
OVCAR-8 ovarian = system: OVCAR-8 ovarian
PC-3 prostate = system: PC-3 prostate
RPMI-8226 leukemia = system: RPMI-8226 leukemia
RXF 393 renal = system: RXF 393 renal
SF-268 CNS = system: SF-268 CNS
SF-295 CNS = system: SF-295 CNS
SF-539 CNS = system: SF-539 CNS
SK-MEL-2 melanoma = system: SK-MEL-2 melanoma
SK-MEL-28 melanoma = system: SK-MEL-28 melanoma
SK-MEL-5 melanoma = system: SK-MEL-5 melanoma
SK-OV-3 ovarian = system: SK-OV-3 ovarian
SN12C renal = system: SN12C renal
SNB-19 CNS = system: SNB-19 CNS
SNB-75 CNS = system: SNB-75 CNS
SR leukemia = system: SR leukemia
SW-620 colon = system: SW-620 colon
T-47D breast = system: T-47D breast
TK-10 renal = system: TK-10 renal
U251 CNS = system: U251 CNS
UACC-257 melanoma = system: UACC-257 melanoma
UACC-62 melanoma = system: UACC-62 melanoma
UO-31 renal = system: UO-31 renal

With `CC(C)c1cc(C(=O)N2Cc3ccc(CN4CCN(C)CC4)cc3C2)c(O)cc1O` the GI50 (786-0 renal) was 1930 nM and 640 nM, the TGI (786-0 renal) was 30500 nM and 21000 nM and the TGI (A498 renal) was > 100000 nM and 15200 nM. The GI50 (A549 NSCLC) was 44 nM and 238 nM, the TGI (A549 NSCLC) was > 46000 nM and 37100 nM and the GI50 (ACHN renal) was 66.1 nM and 210 nM. The TGI (ACHN renal) was over 100000 nM, the GI50 (BT-549 breast) was 15900 nM and 2390 nM and the TGI (BT-549 breast) was > 100000 nM and 30400 nM. For the same molecule, the GI50 (CAKI-1 renal) was 52.2 nM and 512 nM, the GI50 (CCRF-CEM leukemia) was 73.7 nM and 106 nM and the TGI (CCRF-CEM leukemia) was > 100000 nM and 30200 nM. The GI50 (COLO 205 colon) was 42.2 nM and 44.4 nM, the GI50 (DU-145 prostate) was 74.1 nM and 55.3 nM and the TGI (DU-145 prostate) was 24400 nM and 18800 nM. The GI50 (EKVX NSCLC) was 983 nM and 1270 nM, the TGI (EKVX NSCLC) was over 100000 nM and the GI50 (HCC-2998 colon) was 45.5 nM and 213 nM. For the same molecule, the GI50 (HCT-116 colon) was 39.4 nM and 81.8 nM, the TGI (HCT-116 colon) was 15300 nM and 13400 nM and the GI50 (HCT-15 colon) was 62.2 nM and 145 nM. The TGI (HCT-15 colon) was > 100000 nM and 21800 nM, the GI50 (HL-60(TB) leukemia) was 47.9 nM and 212 nM and the TGI (HL-60(TB) leukemia) was 16200 nM and 11600 nM. The GI50 (HOP-62 NSCLC) was 128 nM and 656 nM, the TGI (HOP-62 NSCLC) was over 92200 nM and the GI50 (HOP-92 NSCLC) was 617 nM and 498 nM. The TGI (HOP-92 NSCLC) was 35300 nM and 11000 nM, the GI50 (HS 578T breast) was 716 nM and 1870 nM and the TGI (HS 578T breast) was 35300 nM and 43900 nM. For the same molecule, the GI50 (HT29 colon) was 42.8 nM and 58 nM, the TGI (HT29 colon) was > 32800 nM and 12600 nM and the GI50 (K-562 leukemia) was 47.2 nM and 207 nM. The TGI (K-562 leukemia) was > 100000 nM and 16200 nM, the GI50 (KM12 colon) was 29.1 nM and 77.2 nM and the GI50 (LOX IMVI melanoma) was 55 nM and 177 nM. The TGI (LOX IMVI melanoma) was 369 nM and 2520 nM, the GI50 (M14 melanoma) was 65.9 nM and 334 nM and the TGI (M14 melanoma) was 15600 nM and 14600 nM. The GI50 (MALME-3M melanoma) was 40.3 nM and 271 nM, the TGI (MALME-3M melanoma) was 1260 nM and 1660 nM and the GI50 (MCF7 breast) was 25.4 nM and 48.4 nM. For the same molecule, the TGI (MCF7 breast) was 24100 nM and 30500 nM, the GI50 (MDA-MB-231 breast) was 390 nM and 443 nM and the TGI (MDA-MB-231 breast) was 24800 nM and 13700 nM. For the same molecule, the GI50 (MDA-MB-435) was 51.4 nM and 137 nM, the TGI (MDA-MB-435) was 21100 nM and 13400 nM and the GI50 (MOLT-4 leukemia) was 47.3 nM and 177 nM. The TGI (MOLT-4 leukemia) was > 66400 nM and 20700 nM, the GI50 (NCI-H226 lung) was 414 nM and 553 nM and the TGI (NCI-H226 lung) was > 60300 nM and 50600 nM. For the same molecule, the GI50 (NCI-H23 lung) was 60.6 nM and 458 nM, the TGI (NCI-H23 lung) was 97400 nM and > 53900 nM and the GI50 (NCI-H460 lung) was 31.1 nM and 53.4 nM. The TGI (NCI-H460 lung) was 16200 nM and 11600 nM, the GI50 (NCI-H522 lung) was 45.4 nM and 291 nM and the TGI (NCI-H522 lung) was 3200 nM and 18000 nM. The GI50 (NCI/ADR-RES ovarian) was 245 nM and 779 nM, the TGI (NCI/ADR-RES ovarian) was over 90000 nM and the GI50 (OVCAR-3 ovarian) was 79.3 nM and 452 nM. For the same molecule, the TGI (OVCAR-3 ovarian) was 23400 nM and 20900 nM, the GI50 (OVCAR-4 ovarian) was 5790 nM and 6390 nM and the TGI (OVCAR-4 ovarian) was over 100000 nM. The TGI (OVCAR-5 ovarian) was over 100000 nM, the GI50 (OVCAR-8 ovarian) was 60.4 nM and 300 nM and the TGI (OVCAR-8 ovarian) was over 100000 nM. The GI50 (PC-3 prostate) was 1970 nM and 483 nM, the TGI (PC-3 prostate) was over 100000 nM and the TGI (RPMI-8226 leukemia) was > 100000 nM and 30200 nM. For the same molecule, the GI50 (RXF 393 renal) was 916 nM and 2360 nM, the TGI (RXF 393 renal) was 30500 nM and 28800 nM and the TGI (SF-268 CNS) was 59100 nM and 54300 nM. The GI50 (SF-295 CNS) was 37.1 nM and 158 nM, the TGI (SF-295 CNS) was 2060 nM and 3240 nM and the GI50 (SF-539 CNS) was 1500 nM and 1000 nM. For the same molecule, the TGI (SF-539 CNS) was 24300 nM and 18000 nM, the GI50 (SK-MEL-2 melanoma) was 736 nM and 710 nM and the TGI (SK-MEL-2 melanoma) was 4780 nM and 20100 nM. The GI50 (SK-MEL-28 melanoma) was 98.3 nM and 536 nM, the TGI (SK-MEL-28 melanoma) was 18300 nM and 15800 nM and the GI50 (SK-MEL-5 melanoma) was 163 nM and 459 nM. For the same molecule, the TGI (SK-MEL-5 melanoma) was 17300 nM and 16500 nM, the GI50 (SK-OV-3 ovarian) was 31.5 nM and 64.4 nM and the TGI (SK-OV-3 ovarian) was 54000 nM and 18800 nM. The GI50 (SN12C renal) was 106 nM and 498 nM, the TGI (SN12C renal) was over 100000 nM and the GI50 (SNB-19 CNS) was 872 nM and 847 nM. For the same molecule, the TGI (SNB-19 CNS) was over 100000 nM, the GI50 (SNB-75 CNS) was 1270 nM and 2190 nM and the TGI (SNB-75 CNS) was 46700 nM and > 57300 nM. The GI50 (SR leukemia) was 37.1 nM and 59.3 nM, the TGI (SR leukemia) was 84000 nM and 17100 nM and the GI50 (SW-620 colon) was 37.6 nM and 55.7 nM. For the same molecule, the TGI (SW-620 colon) was 23600 nM and 14800 nM, the GI50 (T-47D breast) was 63.1 nM and 342 nM and the TGI (T-47D breast) was 31200 nM and 34800 nM. The GI50 (TK-10 renal) was 42.8 nM and 381 nM, the TGI (TK-10 renal) was 49800 nM and the GI50 (U251 CNS) was 86.3 nM and 320 nM. The TGI (U251 CNS) was > 50500 nM and 19600 nM, the GI50 (UACC-257 melanoma) was 95.4 nM and 484 nM and the TGI (UACC-257 melanoma) was 4460 nM and 15200 nM. The GI50 (UACC-62 melanoma) was 69.7 nM and 286 nM, the TGI (UACC-62 melanoma) was 15400 nM and 3910 nM and the GI50 (UO-31 renal) was 59.1 nM and 296 nM. For the same molecule, the TGI (UO-31 renal) was 23600 nM and 18100 nM.
